Columns and labels:
[1] = system: tobacco mosaic virus (TMV); settings: cited from earlier work
[2] = system: Pseudomonas syringae pv tabaci; settings: cited from earlier work
[3] = system: SA-inducible pathogenesis-related (PR)-1 proteins; settings: infiltrated leaves; cited from earlier work
[4] = system: RNA silencing pathway (SULPHUR transcript) in SUC-SUL Arabidopsis reporter plants; test: SUC-SUL Arabidopsis reporter plants, percentage of chlorosis (seedlings); type: in vivo, A. thaliana; settings: 300 ppm spray, seedlings five days post-germination, assessed 14 days after treatment
Excerpt: The plants' RNA silencing pathway can be easily monitored with certain artificially-created reporter plants called the “SUC-SUL Arabidopsis reporter plants” (Dunoyer et al., Nat. Genet. 37, 1356-1360, 2005). The SUC-SUL Arabidopsis reporter plants are transgenic plants expressing an inverted-repeat (IR) double-stranded RNA designed to target the SULPHUR (SUL) transcript in the vasculature under the control of the SUC2 promoter (Truernit et al., Planta 196(3), 564-570, 1995). Once expressed, the dsRNA is processed into small interfering RNAs directing non-cell autonomous post-transcriptional gene silencing of the SULPHUR transcript, in turn causing vein-centered chlorosis. Since the observed chlorosis results from the silencing of the SULPHUR transcript, an expansion of the chlorosis, observable directly on the plants, is correlated with an intensification of the RNA silencing pathway at the molecular level. […] The effects of the treatments on the SUC-SUL reporter plants were assessed 14 days after treatment under trans-illumination and digitally recorded with a stereo-microscope by measuring the surface and intensity of the chlorotic zone (percentage of chlorosis). […]

[5] = system: RNAi pathway (SUL transcript, SUL protein, SUL siRNAs) in SUC-SUL Arabidopsis plants; test: Molecular confirmation in four-week-old SUC-SUL Arabidopsis plants; type: in vivo; settings: 200 ppm spray, seven days after treatment
Excerpt: The enhancing effect of DFPM on the RNAi machinery has been validated at the phenotypic and molecular levels. Four-week-old SUC-SUL Arabidopsis plants at rosette stage were sprayed with DFPM at 200 ppm. […] The plant aerial tissues were collected and analyzed molecularly using state-of-the-art methodologies. […] Furthermore, these effects were associated with an over-accumulation of both SUL 21-nt and 24-nt long siRNAs derived from the transgenic SUL.

[6] = system: Turnip mosaic virus (TuMV-GFP); test: Antiviral efficacy against TuMV-GFP on Arabidopsis; type: in vivo; settings: 100 or 200 ppm sprayed 3 days before infection
Protocol: The Turnip mosaic virus (TuMV) belongs to the Potyviridae, the largest family of known plant viruses. This virus infects a wide range of plants, in particular Brassicaceae. TuMV genome consists of a positive-sense single-stranded RNA molecule (+ssRNA). The antiviral efficacy of DFMP was tested with a fluorescently-tagged potyvirus (TuMV-GFP) in order to specifically pinpoint when and where the effect of the molecules is induced during virus primary infection, as well as its local or systemic spread.
Arabidopsis plants were sprayed with 100 or 200 ppm of DFMP 3 days before infecting the plants with the TuMV-GFP virus. Virus titers were measured by qPCR and/or virus protein accumulation on Western blot analyses and by counting the number of primary infection foci under UV light in the case of the TuMV-GFP.

[7] = system: Turnip crinkle virus (TCV); test: Antiviral efficacy against TCV; type: in vivo; settings: 100 ppm
Excerpt: (§1) Similar results were obtained with DFPM with the unrelated viruses Turnip crinkle virus (TCV,) and Cauliflower mosaic virus (CaMV). The TCV belongs to the Tombusviridae family and infects various types of plant species including the common plant models A. thaliana and N. benthamiana. Its genome is another example of +strand RNA virus. The CaMV belongs to the Caulimoviridae family. It infects mostly Brassicaceae such as turnip and cabbage, but is also able to infect A. thaliana. CaMV consists of a double-stranded DNA molecule.

[8] = system: Cauliflower mosaic virus (CaMV); test: Antiviral efficacy against CaMV; type: in vivo; settings: 100 ppm
Excerpt: as §1

[9] = system: Bean pod mottle virus (BPMV-GFP); test: Antiviral efficacy against BPMV-GFP on soybean plants; type: in vivo; settings: seven days-post-infection
Protocol: The Bean pod mottle virus (BPMV) is a plant pathogenic virus of the family Comoviridae. This virus infects legumes and more particularly soybean. BPMV genome consists of a bipartite positive-sense single-stranded RNA molecule (+ssRNA). The antiviral efficacy of silencing enhancers was tested with a fluorescently-tagged comoviruss (BPMV-GFP) in order to specifically pinpoint when and where the effect of the molecules is induced during virus primary infection, local or systemic spread.
Soybean plants were sprayed with 100 or 200 ppm of DFPM and emulsifiable concentrate (EC) Premix one day before to infect the plants with the BPMV-GFP virus. Twelve replicates were used for each condition.

[10] = system: ABA-dependent gene expression and ABA-induced stomatal closure; settings: in vivo; cited from earlier work
[11] = system: PHYTOALEXIN DEFICIENT4 (PAD4) and ENHANCED DISEASE SUSCEPTIBILITY1 (EDS1); settings: in vivo; cited from earlier work
[12] = 100 ppm sprayed one day before infection
[13] = 200 ppm sprayed one day before infection

Compound: COC(=O)N(OC)c1ccccc1COc1ccn(-c2ccc(Cl)cc2)n1 [Pyraclostrobin]
- TMV resistance in NahG transgenic tobacco plants ([1]; NahG transgenic tobacco unable to accumulate salicylic acid): able to enhance TMV resistance
- resistance of tobacco against infection by TMV ([1]; tobacco): enhance the resistance
- resistance of tobacco against infection by Pseudomonas syringae pv tabaci [2]: enhance the resistance
- accumulation of SA-inducible PR-1 proteins [3]: did not cause the accumulation

Compound: S=C(c1ccc(-c2ccc(Cl)c(Cl)c2)o1)N1CCCCC1 [DFPM, [5-(3,4-Dichlorophenyl)Furan-2-yl]-Piperidin-1-ylMethanethione]
- percentage of chlorosis [4]: significant increase
- SUL 21-nt and 24-nt long siRNAs ([5]; aerial tissues): over-accumulation
- SUL protein levels (Western blot) ([5]; aerial tissues): reductions in SUL protein levels
- SUL transcript levels (real-time qRT-PCR, FIG. 1) ([5]; aerial tissues): reductions in SUL transcript levels
- RNAi-dependent vein-centered chlorotic phenotype ([5]; vs DMSO only): clear expansion
- virus accumulation on inoculated leaves (infection foci, FIG. 2) ([6]; five days post-infection): strong reduction
- accumulation of virus titers ([6]; five days-post-infection): clear reduction
- virus accumulation on systemic tissues (TuMV-derived HcPro mRNA levels, FIG. 3) ([6]; six days post-infection): strong reduction
- virus accumulation on inoculated leaves and systemic tissues (TCV-derived P38 mRNA) [7]: strong reduction
- virus accumulation on inoculated leaves and systemic tissues (CaMV-derived P6 mRNA) [8]: strong reduction
- BPMV fluorescence on soybean ([9]; 100 or 200 ppm): clear reduction
- number of plants showing BPMV symptoms ([9]; 100 or 200 ppm): clear reduction
- Average of Percentage of BPMV fluorescence [9, 12]: 31%
- Percentage of plants showing BPMV symptoms [9, 12]: 55%
- Average of Percentage of BPMV fluorescence [9, 13]: 8%
- Percentage of plants showing BPMV symptoms [9, 13]: 10%
- ABA-dependent gene expression in plant [10]: rapidly downregulates
- ABA-induced stomatal closure [10]: inhibits
- expression of plant defense-related genes including PAD4 and EDS1 [11]: stimulates
